# From PubChem BioAssay (NCI)
#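 Here, GI50 denotes the concentration required for 50% inhibition of growth. TGI: total growth inhibition.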
# Assays:
# Experiment in all cases: NCI anticancer screen, dose series, 384-well format
# DU-145 prostate = system: DU-145 prostate
# SF-295 CNS = system: SF-295 CNS
# A498 renal = system: A498 renal
# UACC-62 melanoma = system: UACC-62 melanoma
# NCI-H226 lung = system: NCI-H226 lung
# MDA-MB-231 breast = system: MDA-MB-231 breast
# BT-549 breast = system: BT-549 breast
# SNB-19 CNS = system: SNB-19 CNS
# HCC-2998 colon = system: HCC-2998 colon
# SK-MEL-28 melanoma = system: SK-MEL-28 melanoma
# KM12 colon = system: KM12 colon
# SK-OV-3 ovarian = system: SK-OV-3 ovarian
# SNB-75 CNS = system: SNB-75 CNS
# K-562 leukemia = system: K-562 leukemia
# M14 melanoma = system: M14 melanoma
# EKVX NSCLC = system: EKVX NSCLC
# OVCAR-5 ovarian = system: OVCAR-5 ovarian
# T-47D breast = system: T-47D breast
# SN12C renal = system: SN12C renal
# OVCAR-4 ovarian = system: OVCAR-4 ovarian
# NCI-H522 lung = system: NCI-H522 lung
# A549 NSCLC = system: A549 NSCLC
# TK-10 renal = system: TK-10 renal
# HS 578T breast = system: HS 578T breast
# CAKI-1 renal = system: CAKI-1 renal
# MDA-MB-435 melanoma = system: MDA-MB-435 melanoma
# MALME-3M melanoma = system: MALME-3M melanoma
# OVCAR-3 ovarian = system: OVCAR-3 ovarian
# CCRF-CEM leukemia = system: CCRF-CEM leukemia
# LOX IMVI melanoma = system: LOX IMVI melanoma
# OVCAR-8 ovarian = system: OVCAR-8 ovarian
# COLO 205 colon = system: COLO 205 colon
# U251 glioblastoma = system: U251 glioblastoma
# HL-60(TB) leukemia = system: HL-60(TB) leukemia
# NCI/ADR-RES ovarian = system: NCI/ADR-RES ovarian
# HCT-15 colon = system: HCT-15 colon
# MCF7 breast = system: MCF7 breast
# SK-MEL-5 melanoma = system: SK-MEL-5 melanoma
# ACHN renal = system: ACHN renal
# MDA-MB-468 breast = system: MDA-MB-468 breast
# NCI-H322M lung = system: NCI-H322M lung
# UO-31 renal = system: UO-31 renal
# HOP-62 NSCLC = system: HOP-62 NSCLC
# MOLT-4 leukemia = system: MOLT-4 leukemia
# NCI-H460 NSCLC = system: NCI-H460 NSCLC
# SF-539 CNS = system: SF-539 CNS
# RPMI-8226 leukemia = system: RPMI-8226 leukemia
# NCI-H23 lung = system: NCI-H23 lung
# SR leukemia = system: SR leukemia
# SW-620 colon = system: SW-620 colon
# HT29 colon = system: HT29 colon
# SF-268 CNS = system: SF-268 CNS
# PC-3 prostate = system: PC-3 prostate
# UACC-257 melanoma = system: UACC-257 melanoma
# HOP-92 NSCLC = system: HOP-92 NSCLC
# 786-0 renal = system: 786-0 renal
smiles,measurement,setting,value
S=C(NCc1ccc2c(c1)OCO2)N1CCN(c2ncnc3c2oc2ccccc23)CC1,GI50,DU-145 prostate,> 100 µM
same,TGI,DU-145 prostate,> 100 µM
same,GI50,SF-295 CNS,> 100 µM
same,TGI,SF-295 CNS,> 100 µM
same,GI50,A498 renal,2.95 µM
same,TGI,A498 renal,> 100 µM
same,GI50,UACC-62 melanoma,> 100 µM
same,TGI,UACC-62 melanoma,> 100 µM
same,GI50,NCI-H226 lung,23.6 µM
same,TGI,NCI-H226 lung,> 100 µM
same,GI50,MDA-MB-231 breast,6.31 µM
same,TGI,MDA-MB-231 breast,> 100 µM
same,GI50,BT-549 breast,7.53 µM
same,TGI,BT-549 breast,> 100 µM
same,GI50,SNB-19 CNS,> 100 µM
same,TGI,SNB-19 CNS,> 100 µM
same,GI50,HCC-2998 colon,21.7 µM
same,TGI,HCC-2998 colon,> 100 µM
same,GI50,SK-MEL-28 melanoma,> 100 µM
same,TGI,SK-MEL-28 melanoma,> 100 µM
same,GI50,KM12 colon,> 100 µM
same,TGI,KM12 colon,> 100 µM
same,GI50,SK-OV-3 ovarian,6.63 µM
same,TGI,SK-OV-3 ovarian,> 100 µM
same,GI50,SNB-75 CNS,> 100 µM
same,TGI,SNB-75 CNS,> 100 µM
same,GI50,K-562 leukemia,1.62 µM
same,TGI,K-562 leukemia,> 100 µM
same,GI50,M14 melanoma,> 100 µM
same,TGI,M14 melanoma,> 100 µM
same,GI50,EKVX NSCLC,6.12 µM
same,TGI,EKVX NSCLC,> 100 µM
same,GI50,OVCAR-5 ovarian,> 100 µM
same,TGI,OVCAR-5 ovarian,> 100 µM
same,GI50,T-47D breast,0.593 µM
same,TGI,T-47D breast,8.23 µM
same,GI50,SN12C renal,> 100 µM
same,TGI,SN12C renal,> 100 µM
same,GI50,OVCAR-4 ovarian,5.77 µM
same,TGI,OVCAR-4 ovarian,> 100 µM
same,GI50,NCI-H522 lung,35.4 µM
same,TGI,NCI-H522 lung,> 100 µM
same,GI50,A549 NSCLC,9.14 µM
same,TGI,A549 NSCLC,> 100 µM
same,GI50,TK-10 renal,71.6 µM
same,TGI,TK-10 renal,> 100 µM
same,GI50,HS 578T breast,23.2 µM
same,TGI,HS 578T breast,> 100 µM
same,GI50,CAKI-1 renal,> 100 µM
same,TGI,CAKI-1 renal,> 100 µM
same,GI50,MDA-MB-435 melanoma,72.4 µM
same,TGI,MDA-MB-435 melanoma,> 100 µM
same,GI50,MALME-3M melanoma,> 100 µM
same,TGI,MALME-3M melanoma,> 100 µM
same,GI50,OVCAR-3 ovarian,> 100 µM
same,TGI,OVCAR-3 ovarian,> 100 µM
same,GI50,CCRF-CEM leukemia,0.917 µM
same,TGI,CCRF-CEM leukemia,3.63 µM
same,GI50,LOX IMVI melanoma,3.02 µM
same,TGI,LOX IMVI melanoma,> 100 µM
same,GI50,OVCAR-8 ovarian,3.04 µM
same,TGI,OVCAR-8 ovarian,> 100 µM
same,GI50,COLO 205 colon,> 100 µM
same,TGI,COLO 205 colon,> 100 µM
same,GI50,U251 glioblastoma,8.72 µM
same,TGI,U251 glioblastoma,> 100 µM
same,GI50,HL-60(TB) leukemia,3.18 µM
same,TGI,HL-60(TB) leukemia,30.8 µM
same,GI50,NCI/ADR-RES ovarian,1.36 µM
same,TGI,NCI/ADR-RES ovarian,6.54 µM
same,GI50,HCT-15 colon,33.2 µM
same,TGI,HCT-15 colon,> 100 µM
same,GI50,MCF7 breast,3.01 µM
same,TGI,MCF7 breast,> 100 µM
same,GI50,SK-MEL-5 melanoma,1.06 µM
same,TGI,SK-MEL-5 melanoma,2.69 µM
same,GI50,ACHN renal,> 100 µM
same,TGI,ACHN renal,> 100 µM
same,GI50,MDA-MB-468 breast,0.673 µM
same,TGI,MDA-MB-468 breast,3.32 µM
same,GI50,NCI-H322M lung,2.55 µM
same,TGI,NCI-H322M lung,> 100 µM
same,GI50,UO-31 renal,15.9 µM
same,TGI,UO-31 renal,89 µM
same,GI50,HOP-62 NSCLC,2.78 µM
same,TGI,HOP-62 NSCLC,> 100 µM
same,GI50,MOLT-4 leukemia,1.48 µM
same,TGI,MOLT-4 leukemia,4.8 µM
same,GI50,NCI-H460 NSCLC,2.94 µM
same,TGI,NCI-H460 NSCLC,9.25 µM
same,GI50,SF-539 CNS,> 100 µM
same,TGI,SF-539 CNS,> 100 µM
same,GI50,RPMI-8226 leukemia,1.79 µM
same,TGI,RPMI-8226 leukemia,89.1 µM
same,GI50,NCI-H23 lung,1.87 µM
same,TGI,NCI-H23 lung,> 100 µM
same,GI50,SR leukemia,0.49 µM
same,TGI,SR leukemia,3.36 µM
same,GI50,SW-620 colon,> 100 µM
same,TGI,SW-620 colon,> 100 µM
same,GI50,HT29 colon,> 100 µM
same,TGI,HT29 colon,> 100 µM
same,GI50,SF-268 CNS,> 100 µM
same,TGI,SF-268 CNS,> 100 µM
same,GI50,PC-3 prostate,67.6 µM
same,TGI,PC-3 prostate,> 100 µM
same,GI50,UACC-257 melanoma,6.23 µM
same,TGI,UACC-257 melanoma,> 100 µM
same,GI50,HOP-92 NSCLC,62.7 µM
same,TGI,HOP-92 NSCLC,> 100 µM
same,GI50,786-0 renal,80.6 µM
same,TGI,786-0 renal,> 100 µM
